Patent US20130184273A1, “BICYCLIC PYRIMIDINES” (Bayer Intellectual Property GmbH, priority 2010, published 2013)
pIC50: −log10 of the molar value.

Assays:
[1] = molecular target: T1, His-tagged human recombinant kinase full-length Akt2 (Homo sapiens, UniProt P31751); experiment: Akt2 kinase assay (TR-FRET); type: biochemical; details: 10 μM ATP, 60 min at 22° C., read-out: Akt2, median IC50
T1 construct: His-tagged human recombinant kinase full-length Akt2; His; purchased Invitrogen PV 3975; host or cells: insect cells
Description: Akt2 inhibitory activity of compounds of the present invention was quantified employing the Akt2 TR-FRET assay as described in the following paragraphs.
His-tagged human recombinant kinase full-length Akt2 expressed in insect cells and activated by PDK1 was purchased form Invitrogen (part number PV 3975). As substrate for the kinase reaction the biotinylated peptide biotin-Ahx-KKLNRTLSFAEPG (C-terminus in amide form) was used which can be purchased e.g. from the company Biosynthan GmbH (Berlin-Buch, Germany).
For the assay 50 nl of a 100 fold concentrated solution of the test compound in DMSO was pipetted into a black low volume 384well microtiter plate (Greiner Bio-One, Frickenhausen, Germany), 2 μl of a solution of Akt2 in assay buffer [50 mM TRIS/HCl pH 7.5, 5 mM MgCl2, 1 mM dithiothreitol, 0.02% (v/v) Triton X-100 (Sigma)] were added and the mixture was incubated for 15 min at 22° C. to allow pre-binding of the test compounds to the enzyme before the start of the kinase reaction. Then the kinase reaction was started by the addition of 3 μl of a solution of adenosine-tri-phosphate (ATP, 16.7 μM=>final conc. in the 5 μl assay volume is 10 μM) and substrate (1.67 μM=>final conc. in the 5 μl assay volume is 1 μM) in assay buffer and the resulting mixture was incubated for a reaction time of 60 min at 22° C. The concentration of Akt2 in the assay was adjusted depending of the activity of the enzyme lot and was chosen appropriate to have the assay in the linear range, typical enzyme concentrations were in the range of about 0.2 ng/μl (final conc. in the 5 μl assay volume).
The reaction was stopped by the addition of 5 μl of a solution of HTRF detection reagents (200 nM streptavidine-XL665 [Cisbio] and 1.5 nM anti-phosho-Serine antibody [Millipore, cat. #35-001] and 0.75 nM LANCE Eu-W 1024 labeled anti-mouse IgG antibody [Perkin Elmer]) in an aqueous EDTA-solution (100 mM EDTA, 0.1% (w/v) bovine serum albumin in 50 mM HEPES/NaOH pH 7.5).
The resulting mixture was incubated 1 h at 22° C. to allow the binding of the biotinylated phosphorylated peptide to the streptavidine-XL665 and the antibodies.
Subsequently the amount of phosphorylated substrate was evaluated by measurement of the resonance energy transfer from the anti-mouse-IgG-Eu-Chelate to the streptavidine-XL665. Therefore, the fluorescence emissions at 620 nm and 665 nm after excitation at 350 nm was measured in a TR-FRET reader, e.g. a Rubystar (BMG Labtechnologies, Offenburg, Germany) or a Viewlux (Perkin-Elmer). The ratio of the emissions at 665 nm and at […] was taken as the measure for the amount of phosphorylated substrate. The data were normalised (enzyme reaction without inhibitor=0% inhibition, all other assay components but no enzyme=100% inhibition).

[2] = tested on: KPL-4 breast cancer cell line; experiment: Tumor cell proliferation assay (CellTiter-Glo); type: cell-based; details: KPL4, 72 h drug exposure
Experimental: Compounds were tested in a cell-based assay that measures the capacity of the compounds to inhibit tumour cell proliferation following a 72 h drug exposure. Cell viability is determined using CellTiter-Glow® (CTG, Promega, cat #G7571/2/3). The CellTiter-Glo® Luminescent Cell Viability Assay is a homogeneous method to determine the number of viable cells in culture. Detection is based on using the luciferase reaction to measure the amount of ATP from viable cells. The amount of ATP in cells correlates with cell viability. Within minutes after a loss of membrane integrity, cells lose the ability to synthesize ATP, and endogenous ATPases destroy any remaining ATP; thus the levels of ATP fall precipitously.
Cells were plated at 3000-5000 cells/well (depending on the cell lines) in 90 μL growth medium on MTPs (Corning; #3603, black plate, clear flat bottom). For each cell line assayed, cells were plated onto a separate plate for determination of […] at t=0 hour and t=72 hour time points. Following overnight incubation at 37° C., chemiluminescence values for the t=0 samples were determined after adding 10 μl medium and 100 μl CTG solution according to manufacture protocol. Plates for the t=72 hour time points were treated with compounds diluted into growth medium at ten times final concentration added in 10 μL to the cell culture plate. Cells were then incubated for 72 hours at 37° C. Chemiluminescence values for the t=72 hour samples were determined. […] Experiments were controlled using a reference compound as standard.

[3] = tested on: phospho-AKT at S473 in KPL4 breast tumour cell line; experiment: Cellular p-AKT1/2/3-S473 assay; type: cell-based; details: KPL4 cells, treated with compounds for 2 hours; read-out: pAKT-S743 median IC50
Experimental: The molecular mechanism of action was investigated in a set of experiments to assess the inhibition of the PI3K-AKT-mTOR pathway in responsive cell lines such as KPL4 breast tumour cell line (PIK3CAH1047R, HER20/E and hormone independent). The phospho-substrates of PI3K-AKT-mTOR axis were used as the read-outs to reflect pathway inhibition. Cells were seeded at 60-80% confluency per well in 96-well cell culture plates. After overnight incubation at 37° C. 5% CO2, cells were treated with compounds and vehicle at 37° C. for 2 hours. Thereafter, cells were lysed in 150 μl lysis buffer and the levels of phospho-AKT at T308 and S473 and p-4E-BP1 at T70 sites were determined with the corresponding AlphaScreen® SureFire® assay kits (Perkin Elmer: 4E-BP1 Assay Kit Cat # TRG4E2S10K; Akt 1/2/3 p-Ser 473 #TGRA4S500 and Akt 1/2/3 p-Thr 308 #TGRA3S500 as well as IgG detection Kit #6760617M) as described in the manuals. All measurements where at least done in duplicates and confirmed by independent repetition.
Alternatively pAKT-S473 was measured using the “Akt Duplex” of the MULTI-SPOT® Assay System (Fa. Meso Scale Discovery, Cat#N41100B-1) following manufacturers instructions. Each assay used 20 μg of protein extract and measured total AKT and p-AKT content simultaneously in one well. All measurements where at least done in duplicates and confirmed by independent repetition. Values for P-AKT are expressed as percentage of P-AKT level compared to total-AKT content of the extracts.

T1 sequence (P31751 whole entry): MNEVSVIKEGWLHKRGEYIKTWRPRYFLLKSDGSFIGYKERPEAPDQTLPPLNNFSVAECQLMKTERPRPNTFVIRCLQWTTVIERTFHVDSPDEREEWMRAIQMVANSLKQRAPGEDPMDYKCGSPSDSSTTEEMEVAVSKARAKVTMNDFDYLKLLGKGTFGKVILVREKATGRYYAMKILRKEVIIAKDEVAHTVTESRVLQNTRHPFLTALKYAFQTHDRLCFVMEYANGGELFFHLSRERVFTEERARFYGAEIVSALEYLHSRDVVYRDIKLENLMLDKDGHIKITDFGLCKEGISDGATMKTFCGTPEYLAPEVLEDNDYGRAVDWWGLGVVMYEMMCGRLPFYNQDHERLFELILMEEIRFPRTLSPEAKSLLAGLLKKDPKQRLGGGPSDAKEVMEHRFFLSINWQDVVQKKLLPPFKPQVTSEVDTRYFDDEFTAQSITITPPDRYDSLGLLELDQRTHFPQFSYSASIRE

## NC1(c2ccc(-c3nc4ncc(-c5ccc(F)c(CO)c5)n4cc3-c3ccccc3)cc2)CCC1 [Example 6-1, (5-{7-[4-(1-Amino-cyclobutyl)-phenyl]-6-phenyl-imidazo[1,2-a]pyrimidin-3-yl}-2-fluoro-phenyl)-methanol]
[1]
  pIC50: 6.20
[2]
  pIC50: 5.68
[3]
  pIC50: 6.27
